In patent US10633383B2, “Compounds for the treatment, alleviation or prevention of disorders associated with Tau aggregates” (AC Immune SA, priority 2018, dated 2020):

Tests used:
[1] = target: T1, Tau K18 fragment (amino acids 244 to 372 of human Tau441) aggregates (Homo sapiens, UniProt P10636); test: Tau K18 disaggregation assay by ThT; type: biochemical; settings: 2 μM K18 aggregates, 30 minutes at RT, ThT fluorescence
T1 construct: encompassing amino acids 244 to 372 of the longest isoform (2N4R) of human Tau441; host or cells: bacteria
T1 sequence (P10636 561-689): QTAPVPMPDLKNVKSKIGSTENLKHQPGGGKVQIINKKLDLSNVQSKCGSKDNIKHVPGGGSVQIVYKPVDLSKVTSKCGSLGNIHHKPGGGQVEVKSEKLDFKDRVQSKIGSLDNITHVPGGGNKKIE
Description: Tau K18 Disaggregation Assay by ThT
(§1) Compounds were dissolved in anhydrous dimethyl sulfoxide (DMSO, Sigma-Aldrich) to reach a concentration of 10 mM. K18 aggregates and serial dilutions of compounds were mixed together in PBS (volume 50 μL) to a final concentration of 2 μM of K18 aggregates and from 160 to 0.04 μM of compounds. The mixture was incubated for 30 minutes at room temperature (RT), then 40 μL of this mixture were transferred into a black 384-well plate assay (Perkin-Elmer) and mixed with 10 μL of 100 μM ThT in 250 mM glycine (both from Sigma-Aldrich) in PBS. Fluorescence (relative fluorescence units; RFU) was measured in monoplicate or duplicate on a Tecan reader (excitation: 440 nm; emission: 485 nm). Percentage of K18 disaggregation was then calculated and half maximal effective concentration (EC50) was determined using GraphPad Prism version 5 (GraphPad Software) assuming a one-binding site fitting model.

[2] = test system: human neuroblastoma cell line overexpressing the full-length form of human Tau carrying the P301L mutation; test: Reduction of intracellular Tau aggregation (AlphaLISA); type: cell-based; settings: compound at 5 μM, 24 h, aggregated Tau normalized to total Tau, relative to DMSO-treated cells
Description: Reduction of Intracellular Tau Aggregation
A human neuroblastoma cell line overexpressing the full-length form of human Tau carrying the P301L mutation was cultured in complete medium [DMEM-F12 4.5 g/L Glutamax (Invitrogen), 15% FBS (Biochrom), 1% Peni/Strep (Invitrogen) supplemented with 2.5 μg/ml of G418 (Sigma-Aldrich) selection antibiotic]. The day before the experiment 5×10^5 cells/well were plated in a 6 well plate in 3 mL of complete medium. The next day, cells were incubated with DMSO or a compound of the present invention at a 5 μM for additional 24 h at 37° C. After incubation, cells were trypsinized, resuspended in 100 μl of homogenization buffer [25 mM Tris-HCl pH 7.4, 150 mM NaCl, 1 mM EDTA, 1 mM EGTA containing phosphatase inhibitors (30 mM NaF, 0.2 mM Na3VO4, 1 nM Okadaic acid, 1 mM PMSF, 5 mM Na4P2O7) and protease inhibitor cocktail (Complete™, Roche)], and then physically lysed with three rapid cycles of freezing and thawing. Samples were then directly tested in the AlphaLISA assay. Phosphorylated, aggregated, and total Tau were quantified by AlphaLisa using the following antibody pairs: • HT7-Acceptor beads+biotin (BT)-Tau13-Donor beads: Total Tau • HT7-Acceptor beads+biotin (BT)-HT7-Donor beads: Aggregated human Tau
The Tau13 (Abcam) was biotinylated using EZ-Link® NHS-PEO Solid Phase biotinylation kit (Thermo Scientific), while the HT7-biotin was from a commercial source (Thermo Scientific).
For each antibody pairs the concentration of acceptor beads and biotinylated antibodies was optimized. All samples were first tested in a dilution series in PBS in order to identify the linear range and optimal dilution for each sample and assay. For the final protocol, the following reagents were added in a 384-well white OptiPlate (PerkinElmer): • 5 μL of test diluted sample • 20 μL of the mixture biotin-mAb acceptor beads at the following final concentrations: • HT7-BT at 1.25 nM in combination with HT7-Acc beads at 10 μg/ml • Tau13-BT at 5 nM in combination with HT7-Acc beads at 2.5 μg/ml
After incubation of this mixture at room temperature for 1 h, 25 μL of Streptavidin Donor beads (Perkin Elmer) at 25 μg/mL were added in the dark. Plates were analyzed after 30 min incubation using the EnSpire Alpha instrument and EnSpire Workstation version 3.00. Data for aggregated Tau were normalized to total Tau and then expressed as percentage of the DMSO-treated cells.

[3] = target: T2, recombinant full-length (fl)Tau (human Tau 2N4R) aggregates (Homo sapiens, UniProt P10636); test: Full-length Tau (flTau) disaggregation assay by Thioflavin T (ThT); type: biochemical; settings: 2 μM flTau aggregates, 30 minutes at RT, ThT fluorescence
T2 construct: 35 μM of recombinant full-length (fl)Tau in PBS were aggregated; made in house; host or cells: bacteria
T2 sequence (P10636 1-441 isoform P10636-8): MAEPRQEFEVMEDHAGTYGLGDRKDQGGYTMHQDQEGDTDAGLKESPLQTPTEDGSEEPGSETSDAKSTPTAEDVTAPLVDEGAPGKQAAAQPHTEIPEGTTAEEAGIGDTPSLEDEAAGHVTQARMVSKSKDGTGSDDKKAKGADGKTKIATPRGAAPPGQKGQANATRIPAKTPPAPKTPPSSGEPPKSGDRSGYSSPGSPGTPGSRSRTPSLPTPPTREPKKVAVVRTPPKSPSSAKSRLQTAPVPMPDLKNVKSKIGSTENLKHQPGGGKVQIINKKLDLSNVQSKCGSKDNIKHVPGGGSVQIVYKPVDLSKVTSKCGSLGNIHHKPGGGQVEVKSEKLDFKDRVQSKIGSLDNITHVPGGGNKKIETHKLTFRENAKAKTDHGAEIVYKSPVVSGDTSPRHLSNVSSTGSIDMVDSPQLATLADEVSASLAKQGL
Description: Full-Length Tau (flTau) Disaggregation Assay by Thioflavin T (ThT)
as §1, with “The longest isoform of human Tau (2N4R; 441 amino acids) was expressed in bacteria and purified. For the Tau disaggregation assay by ThT, 35 μM of recombinant full-length (fl)Tau in PBS were aggregated for 24 hours at 37° C. in presence of 50 μM of heparin (Sigma-Aldrich) and 10 mM of DTT (Sigma-Aldrich) under shaking at 750 RPM. Compounds were” for “Compounds were”, “10 mM. flTau aggregates and” for “10 mM. K18 aggregates and”, “μM of flTau aggregates and” for “μM of K18 aggregates and”, “Percentage of flTau disaggregation was” for “Percentage of K18 disaggregation was”, “calculated and the half maximal” for “calculated and half maximal”

Row | EC50 [1] [µM] | EC50 [3] [µM] | SMILES | inhibition at 5 µM [2] [%]
1 | < 10 | < 10 | Fc1ccc2c3c([nH]c2c1)CCN(c1ccc2oc(N4CCOCC4)nc2c1)C3 [Example 45, 5-(7-fluoro-1,3,4,5-tetrahydropyrido[4,3-b]indol-2-yl)-2-morpholino-1,3-benzoxazole] | > 50
2 |  | < 10 | CN(C)c1nc2cc(N3CCc4[nH]c5cc(F)ccc5c4C3)ccc2s1 [Example 69] | > 50
